Where two headings read alike, the source gives them in different places.
Assays:
edema = assay: Anti-inflammatory activity: edema inhibition (method of Winter, Risley and Nuss); format: in vivo
[1] = Toxicity test by oral administration in a rat (LD50, LD10); details: rat, in vivo, po
stomach or intestine [2] = assay: Gastrointestinal toxicity: ulcers and hemorrhagic content after one dose of 500 mg/Kg in rats; details: one dose of 500 mg/Kg, 10-rat groups
[3] = Anti-inflammatory activity: edema inhibition (method of Winter, Risley and Nuss); format: in vivo; details: in vivo; LD50 / anti-inflammatory ED50; read-out: anti-inflammatory ED50 times lower than LD50
[4] = Analgesic activity (test by Randall and Salitto); format: in vivo
Experimental: Int. Pharmacodyn 151, 409 (1957). Doses of 200, 300 and 500 mg/Kg. cause 1.43: 1.77 and 2.09 effects over controls.

[5] = Antithermic (antipyretic) activity: yeast extract-induced temperature rise in rabbits; format: in vivo, rabbit
Experimental: Antithermic activity was determined in rabbits, adjusting an endovenous dose of yeast extract to achieve a + 1.7° C rise over the basal temperature of the animal. Three hours after injecting the pyrogenic agent, 200 mg/Kg of the product were administered interperitoneally.

rat [6] = details: in vivo, po
stomach or intestine [7] = details: rat, in vivo, 500 mg/kg
rat [8] = assay: Toxicity test by oral administration in a rat (LD50, LD10)
[9] = comparison with aspirin, in words

In the case of `COc1ccc2c(c1)c(CC(=O)O)c(C)n2C(=O)c1ccc(Cl)cc1` [indometacine, reference compound], the “anti-inflammatory ED50 relative to toxic range” value (edema; in words) is reported as “very close to the toxic range”.
For `CC(=O)Oc1ccccc1C(=O)O` [aspirin], the LD50 [1] was 978 mg/kg, the “rats whose stomachs revealed hemorrhagic content” value (stomach or intestine [2]) was 60% and the “ulcers of the stomach or intestine” value (stomach or intestine [2]) was “no ulcers”.
For `CC(=O)Nc1ccc(OCCOC(=O)c2ccccc2OC(C)=O)cc1` [Compound (I), o-acetoxy benzoate ester of 2(p-acetamido-phenyloxy)-ethyl alcohol], the selectivity ratio [3] was 10, the “anti-inflammatory activity relative to aspirin” value (edema; [9]) was “as active as aspirin” and the “anti-inflammatory activity: times less active than indometacine” value (edema; comparison with indometacine) was 33 times. The inhibition at 200 mg/kg (edema; dose 200 mg/Kg) was 23%, the inhibition at 400 mg/kg (edema; dose 400 mg/Kg) was 31% and the “analgesic activity relative to aspirin” value [4, 9] was “equipotential with respect to aspirin”. For the same compound, the “analgesic effect over controls” value ([4]; dose 200 mg/Kg) was 1.43, the “analgesic effect over controls” value ([4]; dose 300 mg/Kg) was 1.77 and the “analgesic effect over controls” value ([4]; dose 500 mg/Kg) was 2.09. The “animal's temperature after administration, for two consecutive hours” value ([5]; 200 mg/Kg interperitoneally, three hours after pyrogenic agent (+1.7° C rise)) was “decreased to its basal values”, the “duration of antipyretic effect relative to aspirin and N-acetyl-p-aminophenol” value ([5]; in words) was “longer lasting effects” and the “LD10 (maximum dose possible to administer)” value (rat [6]) was 7,000 mg/Kg. For the same compound, the “gastrointestinal disorders, comparison with aspirin” value (stomach or intestine [7]) was “clear differences appear in favor of compound (I) over aspirin”, the “ulcers of the stomach or intestine” value (stomach or intestine [7]) was “no ulcers” and the “toxicity factor relative to aspirin” value (rat [8]; factor in favor of product (I) over aspirin) was 7. For the same compound, the “toxicity relative to aspirin” value (rat [8]; oral, rat, in words) was “less toxic than aspirin”.

— patent US4014921A, “O-Acetoxy benzoate ester of 2(p-acetamido-phenyloxy)ethyl alcohol” (Alter, S.A., priority 1975, dated 1977)
